The source of these data is US8822533B1, “Methods and compositions for repelling and/or killing insects” (The United States of America, as represented by the …, priority 2011, dated 2014).

For orientation: mortality means the percentage killed. A higher mortality goes with a strong lethal effect.

The structures appear in SMILES notation.

In assay [1] the test system is bed bugs (Cimex lectularius). The assay can be described thus: Bed bug mortality on treated filter paper. The assay is classed as in vivo. The note with it: 24 h.
Assay [2] has as its system Mosquitoes, either Aedes aegypti (Liverpool) or Anopheles stephensi Liston. Briefly: K&D module in vitro bioassay: biting protection, knockdown and mortality. The assay is classed as in vivo. The conditions noted are these: for mortality at 0.0025 µM / mortality at 0.025 µM: Aedes aegypti; for mortality at 0.0025 µM: 24 h; for mortality at 0.025 µM: 48 h. The procedure: In vitro bioassays were conducted as described by Klun et. al. (Klun, J. A., et al., J. Med. Entomol., 40: 293-299 (2005)). Each test replicate consisted of 3 treatments: a control (EtOH); a standard (Deet, 4.54 nmol/μl); and an experimental compound (pyrethroid analogs, 4.54 nmol/ul). The 3 treatments were randomly assigned to consecutive cells in 2, 6-cell reservoirs connected in series to a single water-bath pump; thus, 4 replicates could be tested/run. Tests were performed in an Air Science USA hood, with an air movement velocity of approx. 110-120 ft./min., temperature of 25-27° C., and RH of 15-25%. A 6-celled reservoir was connected to and heated by a constant-temperature (38° C.) water circulator (Lauda E100, Wobser GMGH and Co., Konigshofell, Germany).
Prior to each test, the upper surface of each reservoir was coated with a thin layer of high-vacuum silicone grease (Dow Corning Corp., Midland, Mich.), and the cells then filled (approx. 6 ml. capacity) or topped-off with either: (1) expired human red blood cells suspended in citrate-phosphate-dextrose-adenine (CPDA) solution, not more than 1 month past expiration date, and to which 110 mg ATP/35 ml. blood-CPDA had been added on the day of testing; or (2) CPDA+ATP×^−3, usually made up or diluted to 10^−3 ATP on the day of testing. The filled cells were then covered with an Edicol collagen membrane (Devro, Sandy Run, S.C.) strip, and then with a just-treated (110 μl of 4.54 nmol/μl treatment or control solution) organdy cloth (G Street Fabrics, Rockville, Md.) strip. Mosquitoes used in tests were either Aedes aegypti_(Liverpool) or Anopheles stephensi_Liston. K&D modules containing 5 adult females/cell were placed over a Teflon separator atop each reservoir; the sliding floors opened allowing access to the treated organdy cloth and membrane-covered cell; and the number of mosquitoes biting (proboscis inserted through the cloth) and/or observed to be engorged within each cell at the end of a 3-5 min. exposure period was recorded. Mosquitoes were used only once in a test, and then frozen and discarded.
Only tests in which 3 or more females fed in the control cell were analyzed, as lower feeding rates are indicative of substandard feeding readiness of that group of mosquitoes.
[…] Data were collected to record knockdown in 6 minutes, one hour and 24 hours post exposure.

Another assay concerns Ae. aegypti mosquitoes. The assay can be described thus: Sleeve bite protection assay on treated uniform fabric, mosquitoes. The format is in vivo, Aedes aegypti (Orlando, 1952). How it is done: Biological Evaluation: Bite protection assays were conducted with laboratory-reared 7-12 day old mosquitoes or sand flies. The species used throughout these studies are Aedes aegypti (Orlando, 1952) and Phlebotomus papatasi sand flies (Jerusalem, 1983). Females were pre-selected using either a hand draw box or a mechanical aspirator. An assay was conducted by wearing sewn sleeves made from clothing material. Treated specimens were assayed with untreated controls to correct for the bite resistance afforded by material construction and composition. The untreated control was tested at the beginning of the experiment, followed by successively higher candidate repellent concentrations on sleeves. Sleeves were sewn from a cut out single ply trapezoidal pattern (33.2 cm×21 cm×25.5 cm height) of material. […] Permethrin was 35:65cis: trans, 95.85% technical material. Experimental repellents were received as neat samples with <5% impurities. The treatment occurred by dissolution of repellent in suitable quantity of acetone to saturate the clothing, but minimizing excess solution. Excess solution was quantified and this amount of excess was then used to calculate the estimated amount of repellent applied to the material. […] The photoperiod was 12:12. The mosquito cages were approximately 60000 cm^3 and each contained 175 to 225 female mosquitoes. […] Cages for sand fly work were slightly smaller (15000 cm^3) and constructed of acrylic for filming purposes and with screens on the exterior edges to allow air flow through the system. About 20-40 sand flies were released in cages for each assay. Assays started when the sleeved arm was inserted through the sleeve into the cage. Normally the hand was protected by a glove, but there were situations (i.e. sand fly data presented here) when the ability of a repellent to protect the untreated hand was determined. The assay periods were 15 min for the mosquitoes and 25-30 minutes for sand flies. The insects were allowed to land, probe and possibly bloodfeed during this time. At the conclusion of the experiment, all insects were knocked down or aspirated and the percentage that bloodfed of the total female test population in the cage was recorded. The protect level was calculated by Abbott's formula as a percentage reduction in bites compared to the untreated fabric control sleeve. Specific conditions for bioassays are noted with corresponding data contained in the Tables.

Assay [3] relates to bed bugs (Cimex lectularius). Briefly: Bed bug mortality on treated filter paper. The assay is classed as in vivo. The note with it: Cimex lectularius, 24 h. How it is done: Knockdown data and mortality for volatile pyrethroids against bed bugs (Cimex lectularius): Compounds were dissolved in acetone to yield concentrations of 100 μg/cm^2, 10 μg/cm^2, and 1 μg/cm^2 and 47 mm filter paper disks were treated. Acetone-treated filter paper was used as a negative control. Mixed stages (nymphs and adults) of a laboratory colony of the bed bug Cimex lectularius were placed on the treated filter paper in glass Petri dishes and mortality was recorded 24 h later, at which time bed bugs were removed to untreated surfaces. 24 h after this transfer another assessment of mortality was made to see if any dead or moribund bugs had recovered.

Where [4] appears, read: ACU (50/50 NYCO) sleeve, glove on hand, 15 min, permethrin 0.118, transfluthrin 0.108, TL-I-107 0.107, TL-I-141 0.109, TL-I-105 0.107, TL-I-73 0.102 mg/cm^2.
[5] abbreviates: ACU (50/50 NYCO) sleeve, glove on hand, Abbott's formula vs untreated sleeve, concentrations as E1.
[6] abbreviates: ACU (50/50 NYCO) sleeve, glove on hand, concentrations as E1.
Where [7] appears, read: ACU sleeve, stored one year then tested, concentrations as E1.
Where [8] appears, read: ACU sleeve, treated specimens stored in refrigerator for one year then tested, concentrations as E1.

In the case of `CC(C)=C[C@@H]1[C@@H](C(=O)OCc2c(F)c(F)c(C)c(F)c2F)C1(C)C` [TL-I-105], the mortality at 5 µg/cm2 in assay [1] is 100%. Besides, in assay [2] (2.5 nM\cm^2, K&D module), the “Knockdown 6 min (%)” value came out at 98%, the “Knockdown 24 hours (%)” value is 100% and the “Not feeding 3 minutes (%)” value is listed as 100%. For the same compound, the “Knockdown 1 hour (%)” value in assay [2] (2.5 nmol/cm^2, K&D module) was 100%. Also, in assay [2] (25 nM\cm^2, K&D module), the “Knockdown 6 min (%)” value is recorded as 100%, the “Knockdown 24 hours (%)” value was 100% and the “Not feeding 3 minutes (%)” value was 100%. In assay [2] (25 nmol/cm^2, K&D module), the “Knockdown 1 hour (%)” value is listed as 100%. In addition, in assay [2], the mortality at 0.0025 µM came to 100% and the mortality at 0.025 µM was found to be 100%. Also, the “Blood-fed #” value in the assay with Ae. aegypti mosquitoes (setting [4]) is reported as 0 #. The “Bite Protection (%)” value with Ae. aegypti mosquitoes (setting [5]) was found to be 100%. Moreover, in the assay with Ae. aegypti mosquitoes (setting [6]), the “Fed (%)” value stood at 0.0%. Besides, in the assay on Ae. aegypti mosquitoes (setting [7]), the “Bite Protection (%)” value was found to be 100% and the “Fed (%)” value is on record as 0.0%. Further, the “Blood-fed #” value in the assay on Ae. aegypti mosquitoes (setting [8]) is 0 #. In assay [3], this compound showed a mortality at 1 µg/cm2 of 10%, a mortality at 10 µg/cm2 of 100% and a mortality at 100 µg/cm2 of 100%.

In assay [1], `CC(C)=C[C@@H]1[C@@H](C(=O)OCc2c(F)c(F)cc(F)c2F)C1(C)C` [TL-I-107] registered a mortality at 5 µg/cm2 of 100%. Moreover, in assay [2] (2.5 nM\cm^2, K&D module), the “Knockdown 6 min (%)” value turned out to be 100%, the “Knockdown 24 hours (%)” value was found to be 100% and the “Not feeding 3 minutes (%)” value was determined as 100%. Moreover, the “Knockdown 1 hour (%)” value in assay [2] (2.5 nmol/cm^2, K&D module) amounted to 100%. Also, in assay [2] (25 nM\cm^2, K&D module), the “Knockdown 6 min (%)” value worked out at 100%, the “Knockdown 24 hours (%)” value came to 100% and the “Not feeding 3 minutes (%)” value is on record as 100%. The “Knockdown 1 hour (%)” value in assay [2] (25 nmol/cm^2, K&D module) is listed as 100%. In assay [2], this compound came in with a mortality at 0.0025 µM of 100% and a mortality at 0.025 µM of 100%. In addition, in the assay with Ae. aegypti mosquitoes (setting [4]), the “Blood-fed #” value is reported as 0 #. Further, in the assay on Ae. aegypti mosquitoes (setting [5]), the “Bite Protection (%)” value was 100%. Besides, in the assay on Ae. aegypti mosquitoes (setting [6]), the “Fed (%)” value came out at 0.0%. Besides, in the assay with Ae. aegypti mosquitoes (setting [7]), the “Bite Protection (%)” value came to 100% and the “Fed (%)” value is recorded as 0.0%. The “Blood-fed #” value in the assay with Ae. aegypti mosquitoes (setting [8]) is on record as 0 #. Further, in assay [3], the mortality at 1 µg/cm2 came to 0%, the mortality at 10 µg/cm2 turned out to be 100% and the mortality at 100 µg/cm2 was determined as 100%.
